{"source": "patent US20110286998A1", "about": "“METHODS FOR TREATING AND PREVENTING CANCERS THAT EXPRESS THE HYPOTHALAMIC-PITUITARY-GONADAL AXIS OF HORMONES AND RECEPTORS” (Voyager Pharmaceutical Corporation, priority 2001, published 2011)", "key": {"cancer cell lines": {"tested_on": "cancer cell lines", "assay_type": "cell-based", "experimental": "Cell growth assays were performed as described below. CaOV3 (ATCC HTB-75) cells were plated in Dulbecco's modified Eagle's medium with 4 mM L-glutamine, 1.5 g/L sodium bicarbonate, 0.1 mM non-essential amino acids, and 10% fetal bovine serum. H358 (ATCC CRL-5807) cells were plated in RPMI 1640 medium with 2 mM L-glutamine adjusted to contain 1.5 g/L sodium bicarbonate, 4.5 g/L glucose, 10 mM HEPES, 1.0 mM sodium pyruvate and 10% fetal bovine serum. H838 (ATCC CRL-5844) cells were plated in RPMI 1640 medium with 1.5 g/L sodium bicarbonate, 4.5 g/L glucose, 10 mM HEPES, 1.0 mM sodium pyruvate, 10 U/ml insulin and 10% fetal bovine serum. […]\nFor cell growth assays in a 96 well format, different numbers of cells were plated, depending on the cell line (about 2000 cells/well for CaOV3, about 250 cells/well for 786-O, about 500 cells/well for H838 and H358, about 5000 cells/well for T47D and […], about 1000 cells/well for HPAC, ACHN, HT-29, MCF-7 and about 300,000 cells/well for MV4-11). […] The number of cells in each group was measured by incubating cells with WST-8 (2-(2-methoxy-4-nitrophenyl)-3-(4-nitrophenyl)-5-(2,4-disulfophenyl)-2H-tetrazolium, monosodium salt) which produces a water soluble formazan dye that was detected by measuring optical density (at 450 nm) using a μQuant™ Universal Microplate Spectrophotometer (Bio-Tek® Instruments, Inc., Winooski, Vt.)."}, "[1]": {"details": "both, dog, in vivo, sc, 34 mg", "quoted_text": "FIG. 16 presents results of a pharmacokinetic study in which male and female dogs were either injected intramuscularly with a leuprolide depot formulation or implanted subcutaneously with a leuprolide implant formulation.\nSix dogs of each sex were dosed with 60 mg of Lupron Depot® by injection (males—X, females—▴) on day 1. Six dogs of each sex were dosed with single subcutaneous doses (males—▪, females—♦) of 3 DURIN™-Leuprolide 11.3 mg implants (total dose 34 mg) on day 1 and again on day 64. Serum leuprolide levels were determined and plotted against time out to 200 days."}, "[2]": {"tested_on": "pituitary secretion of LH and FSH", "details": "cited from earlier work"}, "testosterone": {"tested_on": "testosterone", "details": "in vivo; cited from earlier work"}}, "data": [{"smiles": "CCNC(=O)[C@@H]1CCCN1C(=O)[C@H](CCCNC(=N)N)NC(=O)[C@H](CC(C)C)NC(=O)[C@@H](CC(C)C)NC(=O)[C@H](Cc1ccc(O)cc1)NC(=O)[C@H](CO)NC(=O)[C@H](Cc1c[nH]c2ccccc12)NC(=O)[C@H](Cc1c[nH]cn1)NC(=O)[C@@H]1CCC(=O)N1", "note": "[leuprolide acetate]", "values": [{"measurement": "effect on growth of cancer cell lines", "setting": "cancer cell lines", "result": "slows or inhibits growth in a dose dependent manner"}, {"measurement": "inhibition rates of cancer cell growth", "setting": "cancer cell lines; highest dose of leuprolide used in the studies", "result": "10-40%"}, {"measurement": "sustained serum levels of leuprolide acetate", "setting": "[1]", "result": "5.0 to 8.0", "unit": "ng/mL"}, {"measurement": "pituitary secretion of LH and FSH", "setting": "[2]; for several days after initial administration", "result": "increase"}, {"measurement": "LH and FSH secretion", "setting": "[2]; thereafter, pituitary GnRH receptors down-regulated", "result": "significant decrease"}, {"measurement": "serum concentrations required for testosterone suppression", "setting": "testosterone", "result": "less than 1 ng/ml"}]}]}
